From PMC6270001, “Synthesis and Antiviral Activity of N-Phenylbenzamide Derivatives, a Novel Class of Enterovirus 71 Inhibitors” (Molecules, 2013)

Legend:
Vero cells = test: Cytotoxicity determination in Vero cells monitored by cytopathic effect (CPE); type: cell-based; settings: 48 h, Reed & Muench, concentration that inhibits 50% cellular growth, average ± SD, n=3
Experimental: Vero cells were purchased from the American Type Culture Collection and cultured in Minimum Essential Medium (MEM) supplemented with 10% Fetal Bovine Serum (FBS) and antibiotics (100 U/mL penicillin G, 100 μg/mL streptomycin). Enterovirus 71 (EV 71) strain SZ-98 was kindly provided by Dr. Qi Jin, Institute of Pathogen Biology, Chinese Academy of Medical Science and Peking Union Medical School. […] Enterovirus 71 (EV 71) strain JS-52-3 was kindly provided by Dr. Xiang-zhong Ye, Beijing Wantai Biological Pharmacy Enterprise Co., Ltd. All Enterovirus 71 strains were propagated in Vero cells.
(§1) All compounds were dissolved in DMSO at 20 mg/mL as a stock solution and further diluted in culture medium prior to use. The initial concentration in all cytotoxicity assay was 200 µg/mL, and inhibition assay for anti-EV71 experiments was from maximum non-toxic concentration, and proceeded serially 3-fold dilution with culture medium. All cytotoxicity and activity assay for each compound was repeated for three times, and the data was indicated as average ± SD.
The cytotoxicity of compounds in the presence of Vero cells was monitored by cytopathic effect (CPE). Vero cells (2.5 × 10^4/well) were plated into a 96-well plate. A total of 24 h later, the monolayer cells were incubated in the presence of various concentrations of test compounds. […] The median toxic concentration (TC50) was calculated by Reed & Muench analyses.

[1] = system: EV 71 strain SZ-98 (genotype C4); test: Anti EV 71 activity assay (CPE, Reed & Muench) in Vero cells, strain SZ-98; type: cell-based, Enterovirus 71; settings: for IC50: EV 71 strain SZ-98, Vero cells, 100 TCID50, CPE, average ± SD, n=3; for SI SZ-98: selectivity index TC50/IC50, strain SZ-98, "-" stands for no antiviral selectivity
Experimental: (§2) The EV 71 was divided into three genotypes A, B and C based on nucleotide sequence comparisons, and genotypes B and C were subdivided into B1-B5 and C1-C5 [6, 10]. Genotype C is the most common genotype found in mainland China, especially the C4 subgenotype. Consequently, the intermediate compounds 1a, 1c and 1e, and the final products 2a–c, 3a–g, and 5a–f were evaluated for their anti-EV 71 activity in Vero cells against genotypes C4 (strains SZ-98 and JS-52-3), C2 (strain H) and A (strain BrCr). […] The IC50 values were calculated by the Reed and Muench method, and the cytotoxicity was monitored by the CPE method.
(§3) Vero cells were purchased from the American Type Culture Collection and cultured in Minimum Essential Medium (MEM) supplemented with 10% Fetal Bovine Serum (FBS) and antibiotics (100 U/mL penicillin G, 100 μg/mL streptomycin). Enterovirus 71 (EV 71) strain SZ-98 was kindly provided by Dr. Qi Jin, Institute of Pathogen Biology, Chinese Academy of Medical Science and Peking Union Medical School. Enterovirus 71 (EV 71) strain BrCr (VR-1775) was purchased from the American Type Culture Collection. Enterovirus 71 (EV 71) strain JS-52-3 was kindly provided by Dr. Xiang-zhong Ye, Beijing Wantai Biological Pharmacy Enterprise Co., Ltd. All Enterovirus 71 strains were propagated in Vero cells.
as §1
(§4) Confluent Vero cells grown in 96-well microplates were infected respectively with 100 median tissue culture infective dose (TCID50) EV 71. After 1 h adsorption at 37 °C, the monolayers were washed by PBS and incubated at 37 °C in the maintenance medium with or without different concentrations of test compounds.

[2] = system: EV 71 strain JS-52-3 (genotype C4); test: Anti EV 71 activity assay (CPE, Reed & Muench) in Vero cells, strain JS-52-3; type: cell-based, Enterovirus 71; settings: for IC50: Enterovirus A, Vero, EV 71 strain JS-52-3, Vero cells, 100 TCID50, CPE, average ± SD, n=3; for SI JS-52-3: selectivity index TC50/IC50, strain JS-52-3, "-" stands for no antiviral selectivity
Experimental: as §2, §3, §1, §4

[3] = system: EV 71 strain H (genotype C2); test: Anti EV 71 activity assay (CPE, Reed & Muench) in Vero cells, strain H; type: cell-based, Enterovirus 71; settings: for IC50: EV 71 strain H (C2 genotype), Vero cells, 100 TCID50, CPE, average ± SD, n=3; for SI H: selectivity index TC50/IC50, strain H, "-" stands for no antiviral selectivity
Experimental: as §2, §3, §1, §4

[4] = system: EV 71 strain BrCr (genotype A); test: Anti EV 71 activity assay (CPE, Reed & Muench) in Vero cells, strain BrCr; type: cell-based, Enterovirus 71; settings: for IC50: Enterovirus A, Vero, EV 71 strain BrCr, Vero cells, 100 TCID50, CPE, average ± SD, n=3; for SI BrCr: selectivity index TC50/IC50, strain BrCr, "-" stands for no antiviral selectivity
Experimental: as §2, §3, §1, §4

| Compound | TC50 (Vero cells) [µM] | IC50 ([1]; Enterovirus A, Vero) [µM] | SI SZ-98 [1] | IC50 [2] [µM] | SI JS-52-3 [2] | IC50 ([3]; Enterovirus A, Vero) [µM] | SI H [3] | IC50 [4] [µM] | melting point [°C] | IC50 [3] [µM] | SI BrCr [4] | IC50 [1] [µM] |
| --- | --- | --- | --- | --- | --- | --- | --- | --- | --- | --- | --- | --- |
| CCC(=O)Nc1cc(C(=O)Nc2ccc(Cl)cc2)ccc1OC [Compound 5b, N-(4-Chlorophenyl)-4-methoxy-3-propionamidobenzamide] | >600 | 38 ± 2.9 | > 16 | 39 ± 1.9 | >16 | 22 ± 2.9 | >27 | > 67 | 130 to 132 | – | – | – |
| COc1ccc(C(=O)Nc2ccccc2)cc1NC(=O)C(C)F (stereo not shown) [Compound 2a] | – | > 630 | – | 160 ± 5.7 | >3.9 | 18 ± 1.2 | >35 | > 630 | – | – | – | – |
| CCCNc1cc(C(=O)Nc2ccccc2)ccc1OC [Compound 3e, 4-Methoxy-N-phenyl-3-(propylamino)benzamide] | 410 ± 22 | > 78 | – | 34 ± 4.6 | 12 | ~15 | 20 | 45 | 121 to 123 | 20 ± 1.2 | 9.0 | – |
| COc1cc(C(=O)Nc2ccccc2)ccc1NC(=O)C(C)F (stereo not shown) [Compound 2c, 4-(2-Fluoropropanamido)-3-methoxy-N-phenylbenzamide] | >630 | 110 ± 12 | >5.8 | 34 ± 2.8 | – | 41 ± 2.9 | >16 | 90 ± 9.5 | 142 to 143 | – | >7.0 | – |
| COc1ccc(C(=O)Nc2ccccc2)cc1N [Compound 1a] | >820 | 350 ± 24 | – | 160 ± 7.9 | 5.2 | 190 ± 14 | 4.3 | 160 ± 12 | – | – | 5.2 | – |
| CNc1cc(C(=O)Nc2ccccc2)ccc1OC [Compound 3a, 4-Methoxy-3-methylamino-N-phenylbenzamide] | 780 ± 0.0 | > 260 | – | 260 | 3.0 | 260 | 3.0 | 180 ± 14 | 170 to 172 | – | 4.3 | – |
| CCC(=O)Oc1cc(C(=O)N(C)c2ccc(Cl)cc2)ccc1OC [Compound 5d, N-(4-Chlorophenyl)-N-methyl-4-methoxy-3-propionyloxybenzamide] | 280 ± 21 | 190 ± 12 | 1.4 | 44 ± 3.7 | 6.2 | 65 | 4.3 | 53 ± 2.4 | 139 to 141 | – | 5.2 | – |
| COc1ccc(C(=O)Nc2ccc(Cl)cc2)cc1N(C)C [Compound 3b, N-(4-Chlorophenyl)-3-dimethylamino-4-methoxybenzamide] | 510 ± 38 | 73 ± 8.6 | 7.0 | 42 ± 3.1 | 12 | 31 ± 4.3 | 16 | 50 ± 3.8 | 160 to 162 | – | 10 | – |
| COc1ccc(C(=O)Nc2ccc(Cl)cc2)cc1OC(C)=O [Compound 5e, N-(4-Chlorophenyl)-4-methoxy-3-acetoxybenzamide] | 470 ± 22 | ~15 | 37 | 32 ± 3.6 | 14 | 22 ± 4.7 | 21 | 32 ± 3.9 | 177 to 179 | – | 15 | 13 ± 2.4 |
| COc1ccc(C(=O)Nc2cc(OC)c(OC)c(OC)c2)cc1N(C)C [Compound 3d, 3-Dimethylamino-4-methoxy-N-(3,4,5-trimethoxyphenyl)benzamide] | >560 | 320 ± 32 | >1.7 | > 560 | – | 190 | >3.0 | 190 | 120 to 122 | – | >3.0 | – |
| CCCNc1cc(C(=O)Nc2ccc(Cl)cc2)ccc1OC [Compound 3f, N-(4-Chlorophenyl)-4-methoxy-3-propylaminobenzamide] | 120 | > 70 | – | > 70 | – | > 70 | – | > 70 | 168 to 171 | – | – | – |
| CCC(=O)Nc1cc(C(=O)Nc2ccccc2)ccc1OC [Compound 5a] | >670 | > 75 | – | 58 ± 4.9 | >12 | 96 ± 10 | >7.0 | 45 ± 10 | – | – | – | – |
| COc1ccc(C(=O)Nc2ccccc2)cc1OC(C)=O [Compound 5f, 4-Methoxy-N-phenyl-3-acetoxybenzamide] | 360 ± 39 | 90 ± 11 | 4.0 | 98 ± 4.7 | 3.7 | 47 ± 6.1 | 7.6 | 95 ± 9 | 153 to 155 | – | 3.8 | – |
| CNc1cc(C(=O)Nc2cc(OC)c(OC)c(OC)c2)ccc1OC [Compound 3c, 4-Methoxy-3-methylamino-N-(3,4,5-trimethoxyphenyl)benzamide] | 280 ± 5.9 | 64 | 4.3 | 37 ± 1.9 | 7.5 | 37 ± 1.2 | 7.5 | 44 ± 1 | 147 to 148 | – | 6.2 | – |
